Paper PMC6915728 (Nature Communications, 2019)

What was measured:
[1] = tested on: E. coli BW25113 overexpression strains (ASKA plasmids); test: Minimum inhibitory concentration (MIC), serial broth dilution, single-gene overexpression strains vs empty-vector control; type: cell-based, Escherichia coli; conditions: MIC of overexpression strain / MIC of empty-plasmid control, broth dilution, MS medium, 100 µM IPTG, 30 °C, 20-24 h, OD600, 3 replicates
Method in brief: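 E. coli overexpression strains grown in MS medium with chloramphenicol, induced with 100 µM IPTG for 1 h at 30 °C, then about half-million cells inoculated into 12-step AMP dilutions (typically 1.2-fold steps). OD600 read after 20–24 h at 30 °C with shaking; triplicate strains compared with empty-vector control.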

[2] = tested on: E. coli K12 BW25113 carrying the pooled ASKA overexpression plasmid library (~4400 ORFs); test: Chemical-genetic profiling: pooled competitive growth of the ASKA gene-overexpression library with and without AMP, deep sequencing readout; type: cell-based, Escherichia coli
Source text: We generated chemical-genetic interaction profiles for a diverse set of AMPs (Table 1) by screening them against a comprehensive library of gene overexpressions in E. coli[21]. Increasing gene dosage is a widely applied approach to reveal the targets of small-molecule antibiotics[22],[23]. It also informs on the ‘latent resistome’, that is, the collection of genes where a change from native expression level enhances resistance to a particular drug[24]. We applied a sensitive competition assay by monitoring growth of a pooled plasmid library, overexpressing all the E. coli ORFs (Fig. 1a), as we reported earlier. Specifically, E. coli cells carrying the pooled plasmid collection were grown in the presence or absence of one of the 15 AMPs tested, at a sub-inhibitory concentration that increased the doubling time of the whole population by 2-fold. Following 12 generations of growth, the plasmid pool was isolated from each selection and the relative abundance of each plasmid was determined by a deep sequencing readout (see Methods).
We carried out chemical-genetic profiling to determine the impact of the overexpression of each E. coli ORF on bacterial susceptibility to each of the 15 different AMPs. To this end, we used the complete set of E. coli K-12 Open Reading Frame Archive (ASKA) plasmid library (GFP minus) where each E. coli ORF is cloned into a high copy number expression plasmid (pCA24N-ORFGFP(-)). Prior to screening, the ASKA library was grown in the original host strain E. coli K-12 AG1 in 96-well plates (growth conditions: 37 °C, 280 rpm, LB medium). An equal aliquot of each member of the ASKA library (each well of the 96-well plates) was pooled together and the plasmid DNA (pCA24N-ORF-GFP(-)) was isolated and transformed into E. coli K12 BW25113 strain[51]. To obtain a negative control strain not having any overexpressed gene, the plasmid without a cloned ORF (pCA24N-noORF) was also transformed into the same E. coli strain. Then, on the pooled collection, we applied a previously reported competitive growth assay. Specifically, the pooled overexpression library and the control strain were grown in parallel in MS medium supplemented with 20 µg per ml chloramphenicol and the overexpression was induced by 100 µM isopropyl-ß-D-thiogalactopyranoside (IPTG). After 1 h induction, ~5 × 10^5 bacterial cells from the library were inoculated into each well of a 96-well microtiter plate containing a concentration gradient of an AMP in the MS medium supplemented with 20 µg per ml chloramphenicol and 100 µM IPTG. At the same time, both the library and the control strain with the empty plasmid were grown in the absence of any AMPs. We took special care to grow both of these samples in the exact same conditions as the samples in the presence of AMPs. Bacterial growth was monitored in a microplate reader (Biotek Synergy 2) for 24 h. At the end of the exponential growth phase, we selected those wells in which the doubling time of the cell population was increased by 2-fold. Then, from these wells, cells were split into four equal proportion and each was transferred into 20 mL of MS medium supplemented with the corresponding AMP in four different concentrations in the range that slowed down growth by two-fold in the microtitre plate. […] The rationale for this 2-step process was to maintain competition in exponential phase for 12 generations of growth, efficiently control the growth rate in a reproducible manner and obtain the plasmid pool with standard DNA isolation protocol (innuPREP plasmid mini Kit, Analytik Jena AG) in a yield that is enough for the downstream analysis. The cultures were vigorously shaken along the entire protocol to make sure that the cultures are completely homogeneous and therefore biasing interactions between clones (such as trans-resistance) was minimized. […]

In the case of “KTKKKFLKKT [PXB, Polymyxin B, from Bacillus polymyxa, purchased from Sigma-Aldrich; disrupts cell membrane; cluster C1]”, the “Relative MIC” value ([1]; overexpression strain gadW) is reported as 0.7, the “Relative MIC” value ([1]; overexpression strain lptB) is reported as 0.7 and the “Relative MIC” value ([1]; overexpression strain mzrA) is reported as 0.66. For the same sequence, the “Relative MIC” value ([1]; overexpression strain nikB) was 1, the “Overexpression phenotype, Chemical-genetic profile” value (from here on “Overexpression phenotype”) ([2]; gene eptA, whether the literature phenotype was captured by the overexpression screen) was “Confirmed” and the “Overexpression phenotype” value ([2]; gene marA, whether the literature phenotype was captured by the overexpression screen) was “Confirmed”.
For “RRRPRPPYLPRPRPPPFFPPRLPPRIPPGFPPRFPPRFP [PR39, PR-39, cathelicidin, source pig; cluster C4]”, the “Relative MIC” value ([1]; overexpression strain cvpA) was 0.8, the “Relative MIC” value ([1]; overexpression strain gadW) was 1.32 and the “Relative MIC” value ([1]; overexpression strain mhpA) was 0.78. For the same sequence, the “Relative MIC” value ([1]; overexpression strain mzrA) was 0.8, the “Relative MIC” value ([1]; overexpression strain nikB) was 0.8 and the “Relative MIC” value ([1]; overexpression strain uhpC) was 1.25. The “Effect of folA overexpression on susceptibility” value ([2]; gene folA (dihydrofolate reductase) overexpressed) was “resistance”, the “Overexpression phenotype” value ([2]; gene ptrB, whether the literature phenotype was captured by the overexpression screen (9 out of 13 captured)) was “Confirmed” and the “Overexpression phenotype” value ([2]; gene sbmA, whether the literature phenotype was captured by the overexpression screen) was “Confirmed”.
